Assay results as given in US9751869B2, “LXR modulators” (BRISTOL-MYERS SQUIBB COMPANY, priority 2013, dated 2017).

Target: T1, LXRβ (Homo sapiens, UniProt P55055)
T1 construct: Co-transfection expression plasmids, comprising full-length LXRα (pCMX-h LXRα or LXRβ (pCMX-hLXRβ)); expressed in transfected cells; host or cells: CV-1 African green monkey kidney cells, transient transfection with pCMX-hLXRβ
T1 sequence (P55055 1-460): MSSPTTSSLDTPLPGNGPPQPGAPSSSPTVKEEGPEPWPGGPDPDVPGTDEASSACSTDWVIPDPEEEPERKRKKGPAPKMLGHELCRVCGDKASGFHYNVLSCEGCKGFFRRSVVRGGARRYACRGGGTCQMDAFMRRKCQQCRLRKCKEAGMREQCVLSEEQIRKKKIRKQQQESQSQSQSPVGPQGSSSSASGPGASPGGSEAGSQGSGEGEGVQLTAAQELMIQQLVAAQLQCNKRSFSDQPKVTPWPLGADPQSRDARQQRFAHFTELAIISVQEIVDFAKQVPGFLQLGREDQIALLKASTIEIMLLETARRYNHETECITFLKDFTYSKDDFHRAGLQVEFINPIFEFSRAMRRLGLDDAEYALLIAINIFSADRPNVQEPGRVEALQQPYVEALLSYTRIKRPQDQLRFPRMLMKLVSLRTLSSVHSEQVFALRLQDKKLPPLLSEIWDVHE
T1 sequence (P19793 1-462 partner): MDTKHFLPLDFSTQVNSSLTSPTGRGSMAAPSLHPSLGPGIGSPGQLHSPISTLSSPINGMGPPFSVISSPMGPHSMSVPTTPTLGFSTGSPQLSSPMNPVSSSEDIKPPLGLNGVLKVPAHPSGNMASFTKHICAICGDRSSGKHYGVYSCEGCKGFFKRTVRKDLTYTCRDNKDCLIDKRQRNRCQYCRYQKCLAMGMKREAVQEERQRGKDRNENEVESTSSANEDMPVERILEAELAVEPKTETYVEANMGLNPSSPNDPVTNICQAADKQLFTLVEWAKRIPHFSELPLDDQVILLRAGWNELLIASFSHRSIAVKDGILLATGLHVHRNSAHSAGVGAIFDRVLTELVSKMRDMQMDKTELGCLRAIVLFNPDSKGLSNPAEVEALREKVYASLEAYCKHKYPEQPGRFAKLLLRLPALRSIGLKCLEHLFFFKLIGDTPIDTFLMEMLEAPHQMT
Test: LXR/LXRE co-transfection assay (luciferase reporter) in CV-1 cells, LXRβ
Format: cell-based
Conditions: for EC50: CV-1 cells transfected with pCMX-hLXRβ and LXREx1-Tk-Luciferase, 20 hours incubation, read-out: LXRbeta agonism EC50; for Emax: read-out: LXRbeta % EFFICACY
Source text: To measure the ability of compounds to activate or inhibit the transcriptional activity of LXR in a cell based assay, the co-transfection assay was used. It has been shown that LXR functions as a heterodimer with RXR. For the co-transfection assay, expression plasmids for LXRα and LXRβ are introduced separately via transient transfection into mammalian cells along with a luciferase reporter plasmid that contains one copy of a DNA sequence that is bound by LXR-RXR heterodimers (LXRE; Willy, P. et. al. 1995). LXRs heterodimerize with the endogenous RXR. Treatment of transfected cells with an LXR agonist increases the transcriptional activity of LXR, which is measured by an increase in luciferase activity.
Co-transfection expression plasmids, comprising full-length LXRα (pCMX-h LXRα or LXRβ (pCMX-hLXRβ), reporter plasmid (LXREx1-Tk-Luciferase), and control (pCMX-Galactosidase expression vector) (Willey et al. Genes & Development 9 1033-1045 (1995)).
CV-1 cells were prepared 24 hours prior to the experiment by plating them into T-175 flasks or 500 cm^2 dishes in order to achieve 70-80% confluency on the day of the transfection. The number of cells to be transfected was determined by the number of plates to be screened. Each well of a 384 well plate requires 1.5×10^4 cells. DNA Transfection Reagent was prepared by mixing the required plasmid DNAs with a cationic lipid transfection reagent Transit 2020 (Mirus Bio) for CV1 by following the instructions provided with the reagents. Optimal DNA amounts were determined empirically per cell line and size of vessel to be transfected. For each T175 cm^2 flask a total of 44.4 ug for CV1 of DNA, 133 ul Transit2020 and 4.5 ml DMEM for CV1 was mixed and added. Cells were then incubated at least 5 hours at 37° C. to prepare screening cells.
Assay plates were prepared by dispensing 5 μL of compound per well of a 384 well plate to achieve final compound concentration of 10 μM and no more than 0.5% DMSO. Media was removed from the screening cells, the cells trypsinized, harvested cells by centrifugation, counted, and plated at a density of approximately 1.5×10^4 cells in the 384 well assay plate prepared above in a volume of about 95 uL. Assay plates containing both compounds and screening cells (100 μL in total volume) were incubated for 20 hours at 37° C.
After incubation with compounds, media was removed from the cells and luciferase assay reagent (30 μL/well) added. After ˜2 minutes at ambient temperature, the assay plates were read on a luminometer (PE Biosystems Northstar reader with on-board injectors, or Envision (Perkin Elmer) or equivalent).
The LXR/LXRE co-transfection assay can be used to establish the EC50/IC50 values for potency and percent activity or inhibition for efficacy. Efficacy defines the activity of a compound relative to a high control ((N-(3-((4-fluorophenyl)-(naphthalene-2-sulfonyl)amino)propyl)-2,2-dimethylpropionamide)) or a low control (DMSO/vehicle). The dose response curves are generated from a 10 point curve with concentrations differing by ½ LOG units. Each point represents the average of 4 wells of data from a 384 well plate.
The data from this assay is fitted to the following equation, from which the EC50 value may be solved: Y=Bottom+(Top−Bottom)/(1+10^((log EC50-X)*HillSlope)).
The EC50/IC50 is therefore defined as the concentration at which an agonist or antagonist elicits a response that is halfway between the Top (maximum) and Bottom (baseline) values. The EC50/IC50 values represented are the averages of at least 2 and normally 3 independent experiments. The determination of the relative efficacy or % control for an agonist is by comparison to the maximum response achieved by ((N-(3-((4-fluorophenyl)-(naphthalene-2-sulfonyl)-amino)propyl)-2,2-dimethylpropionamide) that is measured individually in each dose response experiment.
Table 1 lists LXRβ EC50 values and % efficacy measurements in the cotransfection assay for examples of this invention.

[1] = CV-1 cells, relative to maximum response of high control N-(3-((4-fluorophenyl)-(naphthalene-2-sulfonyl)amino)propyl)-2,2-dimethylpropionamide

SMILES | EC50 [nM] | Emax [1] [%] | LXRbeta % EFFICACY [1] [%]
Cc1nc(-c2ccc(OC(F)(F)F)cc2)c(-c2cc(-c3cccc(S(C)(=O)=O)c3)ccc2-n2ccc(C(C)O)n2)o1 (single isomer, unassigned) [Example 367, 1-(1-(3-(2-methyl-4-(4-(trifluoromethoxy)phenyl)oxazol-5-yl)-3′-(methylsulfonyl)-[1,1′-biphenyl]-4-yl)-1H-pyrazol-3-yl)ethanol] | 264 | 55 | –
Cc1nc(-c2ccc(OC(F)(F)F)cc2)c(-c2cc(-c3cccc(S(C)(=O)=O)c3)ccc2-n2ccc(C(C)O)n2)o1 (single isomer, unassigned) [Example 368, 1-(1-(3-(2-methyl-4-(4-(trifluoromethoxy)phenyl)oxazol-5-yl)-3′-(methylsulfonyl)-[1,1′-biphenyl]-4-yl)-1H-pyrazol-3-yl)ethanol] | 890 | – | 50
CC(O)C(F)(F)c1cc(-c2ccc(-c3cccc(S(C)(=O)=O)c3)cc2-n2nncc2-c2ccc(OC(F)(F)F)cc2)n(C)n1 (stereo not drawn) [Example 1, 1,1-difluoro-1-(1-methyl-5-(3′-(methylsulfonyl)-3-(5-(4-(trifluoromethoxy)phenyl)-1H-1,2,3-triazol-1-yl)biphenyl-4-yl)-1H-pyrazol-3-yl)propan-2-ol] | 783 | 68 | –
CCC(F)(F)c1cc(-c2ccc(-c3cc(F)c(CO)c(S(C)(=O)=O)c3)cc2-n2nncc2-c2ccc(OC(F)(F)F)cc2)n(C)n1 [Example 2, (4′-(3-(1,1-difluoropropyl)-1-methyl-1H-pyrazol-5-yl)-3-fluoro-5-(methylsulfonyl)-3′-(5-(4-(trifluoromethoxy)phenyl)-1H-1,2,3-triazol-1-yl)biphenyl-4-yl)methanol] | 26 | 89 | –
Cn1nc(C(F)(F)C(C)(C)O)cc1-c1ccc(-c2cc(F)c(CO)c(S(C)(=O)=O)c2)cc1-n1nncc1-c1ccc(OC(F)(F)F)cc1 [Example 3, 1,1-difluoro-1-(5-(3′-fluoro-4′-(hydroxymethyl)-5′-(methylsulfonyl)-3-(5-(4-(trifluoromethoxy)phenyl)-1H-1,2,3-triazol-1-yl)biphenyl-4-yl)-1-methyl-1H-pyrazol-3-yl)-2-methylpropan-2-ol] | 245 | 73 | –
Cn1nc(C(F)(F)C(N)=O)cc1-c1ccc(-c2cccc(S(C)(=O)=O)c2)cc1-n1nncc1-c1ccc(OC(F)(F)F)cc1 [Example 4, 2,2-difluoro-2-(1-methyl-5-(3′-(methylsulfonyl)-3-(5-(4-(trifluoromethoxy)phenyl)-1H-1,2,3-triazol-1-yl)biphenyl-4-yl)-1H-pyrazol-3-yl)acetamide] | 1580 | 82 | –
Cc1c(C(C)(F)F)nn(C)c1-c1ccc(-c2cc(F)c(CO)c(S(C)(=O)=O)c2)cc1-n1nncc1-c1ccc(OC(F)(F)F)cc1 [Example 5] | 12 | 109 | –
CC(O)C(F)(F)c1cc(-c2ccc(-c3cc(F)c(CO)c(S(C)(=O)=O)c3)cc2-n2nncc2-c2ccc(OC(F)(F)F)cc2)n(C)n1 (stereo not drawn) [Example 6, 1,1-difluoro-1-(5-(3′-fluoro-4′-(hydroxymethyl)-5′-(methylsulfonyl)-3-(5-(4-(trifluoromethoxy)phenyl)-1H-1,2,3-triazol-1-yl)biphenyl-4-yl)-1-methyl-1H-pyrazol-3-yl)propan-2-ol] | 252 | 84 | –
Cn1nc(C(F)(F)C(C)(C)O)cc1-c1ccc(-c2cccc(S(C)(=O)=O)c2)cc1-n1nncc1-c1ccc(OC(F)(F)F)cc1 [Example 7, 1,1-difluoro-2-methyl-1-(1-methyl-5-(3′-(methylsulfonyl)-3-(5-(4-(trifluoromethoxy)phenyl)-1H-1,2,3-triazol-1-yl)biphenyl-4-yl)-1H-pyrazol-3-yl)propan-2-ol] | 377 | 66 | –
Cn1nc(C(F)(F)C(N)=O)cc1-c1ccc(-c2cc(F)c(CO)c(S(C)(=O)=O)c2)cc1-n1nncc1-c1ccc(OC(F)(F)F)cc1 [Example 8, 2,2-difluoro-2-(5-(3′-fluoro-4′-(hydroxymethyl)-5′-(methylsulfonyl)-3-(5-(4-(trifluoromethoxy)phenyl)-1H-1,2,3-triazol-1-yl)biphenyl-4-yl)-1-methyl-1H-pyrazol-3-yl)acetamide] | 2320 | 79 | –
CCC(F)(F)c1cc(-c2ccc(-c3cccc(S(C)(=O)=O)c3)cc2-n2nncc2-c2ccc(OC(F)(F)F)cc2)n(C)n1 [Example 9, 1-(4-(3-(1,1-difluoropropyl)-1-methyl-1H-pyrazol-5-yl)-3′-(methylsulfonyl)biphenyl-3-yl)-5-(4-(trifluoromethoxy)phenyl)-1H-1,2,3-triazole] | 70 | 82 | –
Cc1c(C(C)(F)F)nn(C)c1-c1ccc(-c2cccc(S(C)(=O)=O)c2)cc1-n1nncc1-c1ccc(OC(F)(F)F)cc1 [Example 10, 1-(4-(3-(1,1-difluoroethyl)-1,4-dimethyl-1H-pyrazol-5-yl)-3′-(methylsulfonyl)biphenyl-3-yl)-5-(4-(trifluoromethoxy)phenyl)-1H-1,2,3-triazole] | 31 | 104 | –
Cc1c(C(C)(F)F)nn(C)c1-c1ccc(-c2ccc(CO)c(S(C)(=O)=O)c2)cc1-n1nncc1-c1ccc(OC(F)(F)F)cc1 [Example 11, (4′-(3-(1,1-difluoroethyl)-1,4-dimethyl-1H-pyrazol-5-yl)-3-(methylsulfonyl)-3′-(5-(4-(trifluoromethoxy)phenyl)-1H-1,2,3-triazol-1-yl)biphenyl-4-yl)methanol] | 15 | 104 | –
Cn1nc(C(F)(F)F)cc1-c1ccc(-c2cccc(C(C)(C)C(N)=O)c2)cc1-n1nncc1-c1ccc(OC(F)(F)F)cc1 [Example 12] | 74 | 81 | –
Cn1nc(C(F)(F)F)cc1-c1ccc(-c2cc(Cl)c(CO)c(S(C)(=O)=O)c2)cc1-n1nncc1-c1ccc(OC(F)(F)F)cc1 [Example 13] | 45 | 83 | –
